From patent US11312723B2, “Pyranopyrazole and pyrazolopyridine immunomodulators for treatment of autoimmune diseases” (The Rockefeller University, priority 2017, dated 2022)

Tests used:
[1] = target: Human FXIIa (Homo sapiens (Human), UniProt P00748); assay: Factor XIIa (FXIIa) inhibitory activity, chromogenic substrate (Pefachrome XIIa) cleavage; assay type: biochemical; settings: 10 min pre-incubation, Pefachrome XIIa 400 μM
[2] = target: Human alpha-thrombin (Homo sapiens (Human), UniProt P00734); assay: Thrombin counterscreen for selectivity, fluorogenic substrate cleavage; assay type: biochemical; settings: 10 min pre-incubation, Boc-Val-Pro-Arg-AMC 20 μM
Description: Counterscreens for Selectivity:
Thrombin. In a 96-well white opaque plate, 80 μl of assay buffer was added to each well. Test compounds were added, and serially diluted as above, to generate a concentration range of approximately 1-100 μM. Human alpha-thrombin (Enzyme Research Labs) was diluted in assay buffer to a final concentration of 12.5 nM. 80 μl of this enzyme solution was added to the assay wells. The enzyme/compound mixtures were incubated for 10 minutes at room temperature. Fluorogenic substrate (Boc-Val-Pro-Arg-7-amido-4-methylcoumarin; Sigma) was added to assay wells at a final concentration of 20 μM. The assay plate was spun for 1 minute at 1500 g and then read at 37° C. in a SpectraMax M2 plate reader (λex=380 nm and λem=460 nm). Activity was quantified as the rate of change in fluorescence, which corresponds to the rate of substrate cleavage. IC50 values were determined as the concentration of inhibitor that produced 50% of the rate of change of control wells without any inhibitor. For compounds with activity <1 μM, the assay was repeated with a lower concentration range, typically from 10-1000 nM.

Chain of Human FXIIa (P00748 373-615): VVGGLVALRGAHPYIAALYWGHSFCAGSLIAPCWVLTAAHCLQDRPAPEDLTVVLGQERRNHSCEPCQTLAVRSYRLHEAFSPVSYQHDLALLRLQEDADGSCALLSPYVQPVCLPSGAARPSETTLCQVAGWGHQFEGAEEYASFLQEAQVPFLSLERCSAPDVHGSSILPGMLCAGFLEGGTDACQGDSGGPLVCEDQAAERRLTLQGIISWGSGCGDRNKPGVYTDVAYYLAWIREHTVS
Chain of Human FXIIa (P00748 20-372 partner): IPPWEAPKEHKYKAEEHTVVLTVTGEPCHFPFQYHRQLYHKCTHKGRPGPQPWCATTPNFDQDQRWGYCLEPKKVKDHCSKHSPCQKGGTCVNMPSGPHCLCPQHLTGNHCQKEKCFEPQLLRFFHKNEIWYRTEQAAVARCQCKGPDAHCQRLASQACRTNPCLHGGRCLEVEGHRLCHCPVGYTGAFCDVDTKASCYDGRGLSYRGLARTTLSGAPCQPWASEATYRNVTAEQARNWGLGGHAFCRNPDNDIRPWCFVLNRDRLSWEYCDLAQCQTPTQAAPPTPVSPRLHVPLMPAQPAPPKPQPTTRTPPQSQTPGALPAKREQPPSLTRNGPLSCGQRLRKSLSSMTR

SMILES	IC50 [1] [µM]	IC50 [2] [µM]
Cc1cc(F)cc2c1NCCC2C(=O)n1nc2c(c1N)CCN(S(C)(=O)=O)C2 (single isomer, unassigned) [Example 53, (S*)-(3-amino-6-(methylsulfonyl)-4,5,6,7-tetrahydropyrazolo[3,4-c]pyridin-2-yl)(6-fluoro-8-methyl-1,2,3,4-tetrahydroquinolin-4-yl)methanone]	0.01	9
CS(=O)(=O)N1CCc2c(nn(C(=O)C3CCNc4c(Cl)cccc43)c2N)C1 (single isomer, unassigned) [Example 60, (S*)-(3-amino-6-(methylsulfonyl)-4,5,6,7-tetrahydropyrazolo[3,4-c]pyridin-2-yl)(8-chloro-1,2,3,4-tetrahydroquinolin-4-yl)methanone]	0.03	> 60
COc1cccc2c1NCCC2C(=O)n1nc2c(c1N)CCN(S(C)(=O)=O)C2 (single isomer, unassigned) [Example 63, (S*)-(3-amino-6-(methylsulfonyl)-4,5,6,7-tetrahydropyrazolo[3,4-c]pyridin-2-yl)(8-methoxy-1,2,3,4-tetrahydroquinolin-4-yl)methanone]	0.14	35
CCc1cc(C)c2c(c1)C(C(=O)n1nc3c(c1N)CCN(S(C)(=O)=O)C3)CCN2 (single isomer, unassigned) [Example 69, (3-amino-6-(methylsulfonyl)-4,5,6,7-tetrahydropyrazolo[3,4-c]pyridin-2-yl)((S*)-6-ethyl-8-methyl-1,2,3,4-tetrahydroquinolin-4-yl)methanone]	0.01	40
CS(=O)(=O)N1CCc2c(N)nn(C(=O)C3CCCc4[nH]c(Cl)cc43)c2C1 (stereo not shown) [Example 133, (3-amino-6-(methylsulfonyl)-4,5,6,7-tetrahydro-pyrazolo[3,4-c]pyridin-1-yl)(2-chloro-4,5,6,7-tetrahydro-1H-indol-4-yl)methanone]	45	–
CC(C)(C)S(=O)(=O)N1CCc2c(N)nn(C(=O)C3CCNc4ccc(F)cc43)c2C1 (stereo not shown) [Example 139, (3-amino-6-(tert-butylsulfonyl)-4,5,6,7-tetrahydro-pyrazolo[3,4-c]pyridin-1-yl)(6-fluoro-1,2,3,4-tetrahydro-quinolin-4-yl)methanone]	55	–
Nc1nn(C(=O)C2CCNc3ccc(F)cc32)c2c1CCN(S(=O)(=O)CF)C2 (stereo not shown) [Example 141, (3-amino-6-(fluoromethyl-sulfonyl)-4,5,6,7-tetrahydro-pyrazolo(3,4-c]pyridin-1-yl)(6-fluoro-1,2,3,4-tetrahydro-quinolin-4-yl)methanone]	31	–
Nc1nn(C(=O)C2CCNc3ccc(F)cc32)c2c1CCNC2 (stereo not shown) [Example 148, (3-amino-4,5,6,7-tetrahydro-pyrazolo[3,4-c]pyridin-1-yl)(6-fluoro-1,2,3,4-tetrahydro-quinolin-4-yl)methanone]	20	–
CCCN1CCc2c(N)nn(C(=O)C3CCNc4ccc(F)cc43)c2C1 (stereo not shown) [Example 150, (3-amino-6-propyl-4,5,6,7-tetrahydro-pyrazolo[3,4-c]pyridin-1-yl)(6-fluoro-1,2,3,4-tetrahydro-quinolin-4-yl)methanone]	> 70	–
CC(C)CN1CCc2c(N)nn(C(=O)C3CCNc4ccc(F)cc43)c2C1 (stereo not shown) [Example 154, (3-amino-6-isobutyl-4,5,6,7-tetrahydro-pyrazolo[3,4-c]pyridin-1-yl)(6-fluoro-1,2,3,4-tetrahydro-quinolin-4-yl)methanone]	18	–
Nc1c2c(nn1C(=O)C1CCNc3ccc(F)cc31)CN(S(=O)(=O)c1ccncc1)CC2 (stereo not shown) [Example 155, (3-amino-6-(pyridin-4-ylsulfonyl)-4,5,6,7-tetrahydro-pyrazolo[3,4-c]pyridin-2-yl)(6-fluoro-1,2,3,4-tetrahydro-quinolin-4-yl)methanone]	1.2	–
Nc1nn(C(=O)C2CCNc3ccc(F)cc32)c2c1CCN(S(=O)(=O)c1cccnc1)C2 (stereo not shown) [Example 158, (3-amino-6-(pyridin-3-ylsulfonyl)-4,5,6,7-tetrahydro-pyrazolo[3,4-c]pyridin-1-yl)(6-fluoro-1,2,3,4-tetrahydro-quinolin-4-yl)methanone]	37	–
CCN1CCc2c(N)nn(C(=O)C3CCNc4ccc(Cl)cc43)c2C1 (stereo not shown) [Example 162, (3-amino-6-ethyl-4,5,6,7-tetrahydro-pyrazolo[3,4-c]pyridin-1-yl)(6-chloro-1,2,3,4-tetrahydro-quinolin-4-yl)methanone]	21	–
CCN1CCc2c(N)nn(C(=O)C3CCNc4ccc(F)cc43)c2C1 (stereo not shown) [Example 164, (3-amino-6-ethyl-4,5,6,7-tetrahydro-pyrazolo[3,4-c]pyridin-1-yl)(6-fluoro-1,2,3,4-tetrahydro-quinolin-4-yl)methanone]	12	–
CCN1CCc2c(N)nn(C(=O)C3CCNc4c(C)cccc43)c2C1 (stereo not shown) [Example 175, (3-amino-6-ethyl-4,5,6,7-tetrahydro-pyrazolo[3,4-c]pyridin-1-yl)(8-methyl-1,2,3,4-tetrahydro-quinolin-4-yl)methanone]	50	–
Cc1cccc2c1NCCC2C(=O)n1nc(N)c2c1CNCC2 (stereo not shown) [Example 178, (3-amino-4,5,6,7-tetrahydro-pyrazolo[3,4-c]pyridin-1-yl)(8-methyl-1,2,3,4-tetrahydro-quinolin-4-yl)methanone]	60	–
Cc1cccc2c1NCCC2C(=O)n1nc(N)c2c1CN(S(=O)(=O)C1CCC1)CC2 (stereo not shown) [Example 184]	11	–
Cc1cccc2c1NCCC2C(=O)n1nc(N)c2c1CN(S(=O)(=O)C1COC1)CC2 (stereo not shown) [Example 187, (3-amino-6-(oxetan-3-ylsulfonyl)-4,5,6,7-tetrahydro-pyrazolo[3,4-c]pyridin-1-yl)(8-methyl-1,2,3,4-tetrahydro-quinolin-4-yl)methanone]	35	–
Cc1cccc2c1NCCC2C(=O)n1nc(N)c2c1COCC2 (stereo not shown) [Example 200, (3-amino-4,5-dihydropyrano[3,4-c]pyrazol-1(7H)-yl)(8-methyl-1,2,3,4-tetrahydro-quinolin-4-yl)methanone]	> 100	–

Continued, values first:

IC50 [1] [µM]	IC50 [2] [µM]	SMILES
0.06	20	CS(=O)(=O)N1CCc2c(nn(C(=O)C3CCNc4ccc(F)cc43)c2N)C1 (single isomer, unassigned) [Example 16, (3-amino-6-(methylsulfonyl)-4,5,6,7-tetrahydropyrazolo[3,4-c]pyridin-2-yl)(6-fluoro-1,2,3,4-tetrahydroquinolin-4-yl)methanone]
0.03	12.5	CS(=O)(=O)N1CCc2c(nn(C(=O)C3CCNc4ccc(F)cc43)c2N)C1 (single isomer, unassigned) [Example 18, (S*)-(3-amino-6-(methylsulfonyl)-4,5,6,7-tetrahydropyrazolo[3,4-c]pyridin-2-yl)(6-fluoro-1,2,3,4-tetrahydroquinolin-4-yl)methanone]
0.05	> 100	Cc1cc(F)cc2c1NCCC2C(=O)n1nc2c(c1N)CCOC2 (single isomer, unassigned) [Example 76, (S*)-(3-amino-4,5-dihydropyrano[3,4-c]pyrazol-2(7H)-yl)(6-fluoro-8-methyl-1,2,3,4-tetrahydroquinolin-4-yl)methanone]
0.03	1.5	CS(=O)(=O)N1CCc2c(nn(C(=O)[C@H]3CCCc4[nH]c(Cl)cc43)c2N)C1 (single isomer, unassigned) [Example 131, (S*)-(3-amino-6-(methylsulfonyl)-4,5,6,7-tetrahydro-pyrazolo[3,4-c]pyridin-2-yl)(2-chloro-4,5,6,7-tetrahydro-1H-indol-4-yl)methanone]
7	–	CC(C)S(=O)(=O)N1CCc2c(N)nn(C(=O)C3CCNc4ccc(F)cc43)c2C1 (stereo not shown) [Example 137, (3-amino-6-(isopropyl-sulfonyl)-4,5,6,7-tetrahydro-pyrazolo[3,4-c]pyridin-1-yl)(6-fluoro-1,2,3,4-tetrahydro-quinolin-4-yl)methanone]
17	–	Nc1nn(C(=O)C2CCNc3ccc(F)cc32)c2c1CCN(S(=O)(=O)CC(F)F)C2 (stereo not shown) [Example 143, (3-amino-6-(2,2-difluoroethyl-sulfonyl)-4,5,6,7-tetrahydro-pyrazolo[3,4-c]pyridin-1-yl)(6-fluoro-1,2,3,4-tetrahydro-quinolin-4-yl)methanone]
14	–	Nc1nn(C(=O)C2CCNc3ccc(F)cc32)c2c1CCN(S(=O)(=O)c1ccncc1)C2 (stereo not shown) [Example 156, (3-amino-6-(pyridin-4-ylsulfonyl)-4,5,6,7-tetrahydro-pyrazolo[3,4-c]pyridin-1-yl)(6-fluoro-1,2,3,4-tetrahydro-quinolin-4-yl)methanone]
16	–	Nc1nn(C(=O)C2CCNc3ccc(F)cc32)c2c1CCN(S(=O)(=O)C(F)F)C2 (stereo not shown) [Example 160, (3-amino-6-(difluoromethyl-sulfonyl)-4,5,6,7-tetrahydro-pyrazolo[3,4-c]pyridin-1-yl)(6-fluoro-1,2,3,4-tetrahydro-quinolin-4-yl)methanone]
4.5	–	CCN1CCc2c(N)nn(C(=O)C3CCNc4c(C)cc(F)cc43)c2C1 (stereo not shown) [Example 172, (3-amino-6-ethyl-4,5,6,7-tetrahydro-pyrazolo[3,4-c]pyridin-1-yl)(6-fluoro-8-methyl-1,2,3,4-tetrahydro-quinolin-4-yl)methanone]
40	–	Cc1cccc2c1NCCC2C(=O)n1nc(N)c2c1CCOC2 (stereo not shown) [Example 189, (3-amino-6,7-dihydropyrano[4,3-c]pyrazol-1(4H)-yl)(8-methyl-1,2,3,4-tetrahydro-quinolin-4-yl)methanone]
